Measurements taken from patent US20050171358A1 (priority 2002, published 2005).

Experiments:
[1] = system: Colletotrichum lagenarium; details: 200 ppm spray on cucumber (3 leaf stage), inoculated next day; lesion numbers on first and second leaves after 7 days in green house, graded by Table 5
Pyricularia oryzae = type: in vivo; details: 200 ppm spray on rice (Koshihikari, 3 leaf stage), inoculated next day; lesion numbers on third leaves after 7 days in green house, graded by Table 5

Structure (SMILES)	Evaluation (effect for cucumber anthracnose) [1]	Evaluation (effect for rice blast) (Pyricularia oryzae)
O=C(NCc1cc(-c2ccccc2)no1)NC1CCCCC1 [II-7, 3-[(3-phenyl-5-isoxazolyl)methyl]-1-cyclohexyl urea]	5 (0)	5 (0)
Cc1ccc(-c2cc(CNC(=O)NC3CCCCC3)on2)cc1 [II-9, 1-{[3-(4-tolyl)-5-isoxazolyl]methyl}-3-cyclohexylurea]	5 (0)	5 (0)
Cc1ccc(-c2cc(CNC(=O)NC3CCCC3)on2)cc1 [II-10, 3-[3-(4-tolyl)-5-isoxazolyl]methyl-1-cyclopentylurea]	5 (0)	4 (1˜5)
CN(C(=O)NCc1cc(-c2ccccc2)no1)c1ccccc1 [II-12, 3-[(3-phenyl-5-isoxazolyl]methyl]-1-methyl-1-phenyl urea]	4 (1˜5)	4 (1˜5)
O=C(NCc1cc(Cc2ccccc2)no1)NC1CCCCC1 [II-13, 1-[(3-benzyl-5-isoxazolyl)methyl]-3-cyclohexylurea]	5 (0)	5 (0)
O=C(NCc1cc(Cc2ccccc2)no1)NC1CCCC1 [II-14, 1-[(3-benzyl-5-isoxazolyl)methyl]-3-cyclopentylurea]	5 (0)	4 (1˜5)
CC(C)c1cc(CNC(=O)NC2CCCCC2)on1 [II-15, 1-[(3-isopropyl-5-isoxazolyl)methyl]-3-cyclohexylurea]	4 (1˜5)	3 (6˜10)
O=C(NCc1cc(-c2ccccc2)no1)Nc1ccccc1Cl [II-48, 1-[(3-phenyl-5-isoxazolyl)methyl]-3-(2-chlorophenyl)urea]	4 (1˜5)	3 (6˜10)
O=C(NCc1cc(-c2ccccc2)no1)Nc1cccnc1 [II-100, 1-[(3-phenyl-5-isoxazolyl)methyl]-3-(3-pyridyl)urea]	4 (1˜5)	4 (1˜5)
O=C(NCc1cc(COc2ccccc2)no1)NC1CCCCC1 [II-104, 3-(3-phenoxymethyl-5-isoxazolyl)methyl-1-cyclohexylurea]	5 (0)	5 (0)
O=C(NCc1cc(COc2ccccc2)no1)NC1CCCC1 [II-106, 3-(3-phenoxymethyl-5-isoxazolyl)methyl-1-cyclopentylurea]	2 (11˜20)	3 (6˜10)
Cc1cc(CNC(=O)NC2CCCCC2)on1 [II-108, 3-(3-methyl-5-isoxazolyl)methyl-1-cyclohexylurea]	2 (11˜20)	1 (21˜41)
CNC(=O)c1cc(CNC(=O)NC2CCCCC2)on1 [II-110, 3-(3-methylaminocarbonyl-5-isoxazolyl)methyl-1-cyclohexylurea]	1 (21˜41)	1 (21˜41)
O=C(NCc1cc(COC2=CC(=O)C3CCC2C3)no1)NC1CCCCC1 (stereo not shown) [II-112, 3-[3-(bicyclo[3.2.1]oct-2-en-4-on-2-yl)oxymethyl-5-isoxazolyl]methyl-1-cyclohexylurea]	3 (6˜10)	3 (6˜10)
N#CCc1cc(CNC(=O)NC2CCCCC2)on1 [II-113, 3-(3-cyanomethyl-5-isoxazolyl)methyl-1-cyclohexylurea]	1 (21˜41)	2 (11˜20)
CSCc1cc(CNC(=O)NC2CCCCC2)on1 [II-114, 3-(3-methylthiomethyl-5-isoxazolyl)methyl-1-cyclohexylurea]	3 (6˜10)	3 (6˜10)
CC(C)c1cc(CNC(=O)c2ccccc2)on1 [III-4, N-[(3-isopropyl-5-isoxazolyl)methyl]benzamide]	4 (1˜5)	3 (6˜10)
